pIC50: −log10 of the molar value.
Columns and labels:
Mus musculus [1] = assay: Average tumor weight in mouse tumor sarcoma-180 model after intraperitoneal administration of 5 mg/kg dose; assay type: functional
Bel-7402 = assay: Inhibitory concentration against human Bel-7402 liver cancer cell line; assay type: functional, cell-based
[2] = Lethal toxicity against mouse tumor sarcoma-180 model after intraperitoneal administration of 5 mg/kg dose expressed as number of deaths out of 10 mice; assay type: organism-based; parameters: dose 5 mg/kg, route intraperitoneal; conditions: in vivo, ip
Mus musculus [3] = assay: Percent tumor-weight inhibition in mouse tumor sarcoma-180 model after intraperitoneal administration of 5 mg/kg dose in comparison with control mice; assay type: functional
HCT-116 = assay: Inhibitory concentration against human HCT116 colon cancer cell line; assay type: functional, cell-based
Mus musculus [4] = assay: Percent change in body-weight of mouse tumor sarcoma-180 model after intraperitoneal administration of 5 mg/kg dose; assay type: functional
Mus musculus [5] = assay: Percent change in body-weight of mouse tumor sarcoma-180 model after intraperitoneal administration of 2.5 mg/kg dose; assay type: functional
[6] = Lethal toxicity against mouse tumor sarcoma-180 model after intraperitoneal administration of 2.5 mg/kg dose expressed as number of deaths out of 10 mice; assay type: organism-based; parameters: dose 2.5 mg/kg, route intraperitoneal; conditions: in vivo, ip
Mus musculus [7] = assay: Percent tumor-weight inhibition in mouse tumor sarcoma-180 model after intraperitoneal administration of 2.5 mg/kg dose in comparison with control mice; assay type: functional
Mus musculus [8] = assay: Average tumor weight in mouse tumor sarcoma-180 model after intraperitoneal administration of 2.5 mg/kg dose; assay type: functional
Mus musculus [9] = assay: Percent tumor-weight inhibition in mouse tumor sarcoma-180 model after intraperitoneal administration of 75 mg/kg dose in comparison with control mice; assay type: functional
[10] = Lethal toxicity against mouse tumor sarcoma-180 model after intraperitoneal administration of 75 mg/kg dose expressed as number of deaths out of […]; assay type: organism-based; parameters: dose 75 mg/kg, route intraperitoneal; conditions: in vivo, ip
Mus musculus [11] = assay: Average tumor weight in mouse tumor sarcoma-180 model after intraperitoneal administration of 75 mg/kg dose; assay type: functional
Mus musculus [12] = assay: Percent change in body-weight of mouse tumor sarcoma-180 model after intraperitoneal administration of 75 mg/kg dose; assay type: functional

Row | Compound | pIC50 (Bel-7402) | pIC50 (HCT-116) | also measured
1 | CCc1c2c(nc3ccc(O)cc13)-c1cc3c(c(=O)n1C2)COC(=O)[C@]3(O)CC [7-ETHYL-10-HYDROXYCAMPTOTHECIN] | 5.50 | 8.15 | TW (Mus musculus [1]): 1.93; Lethal toxicity [2]: 0; TWI (Mus musculus [3]): 41.5%; BWC (Mus musculus [4]): 45%
2 | C=CCc1c(OC)ccc2nc3c(c(CC)c12)Cn1c-3cc2c(c1=O)COC(=O)[C@]2(O)CC | 5.67 | 7.17 | 
3 | CCc1c(OC)ccc2nc3c(c(CC)c12)Cn1c-3cc2c(c1=O)COC(=O)[C@]2(O)CC | 5.62 | 7.21 | 
4 | CCCc1c(O)ccc2nc3c(c(CC)c12)Cn1c-3cc2c(c1=O)COC(=O)[C@]2(O)CC | 5.52 | 7.92 | 
5 | CC[C@@]1(O)C(=O)OCc2c1cc1n(c2=O)Cc2cc3cc(O)ccc3nc2-1 [HYDROXYCAMPTOTHECIN] | 5.61 | 6.83 | 
6 | CCc1c(O)ccc2nc3c(c(CC)c12)Cn1c-3cc2c(c1=O)COC(=O)[C@]2(O)CC | 5.70 | 7.64 | 
7 | C=CCc1c(O)ccc2nc3c(c(CC)c12)Cn1c-3cc2c(c1=O)COC(=O)[C@]2(O)CC | 5.56 | 7.85 | BWC (Mus musculus [5]): 9%; Lethal toxicity [6]: 0; TWI (Mus musculus [7]): 81.2%; TW (Mus musculus [8]): 0.62
8 | CCCc1c(OC)ccc2nc3c(c(CC)c12)Cn1c-3cc2c(c1=O)COC(=O)[C@]2(O)CC | 5.42 | 6.82 | 
9 | CC[C@@]1(O)C(=O)OCc2c1cc1n(c2=O)Cc2cc3c(CN(C)C)c(O)ccc3nc2-1 [TOPOTECAN] | 5.40 | 7.00 | 
10 | O=c1[nH]cc(F)c(=O)[nH]1 [FLUOROURACIL] |  |  | TWI (Mus musculus [9]): 53.9%; Lethal toxicity [10]: 0; TW (Mus musculus [11]): 1.52; BWC (Mus musculus [12]): 74%

From ChEMBL document CHEMBL1143521, “Synthesis and antitumor activity of 7-ethyl-9-alkyl derivatives of camptothecin” (Bioorg Med Chem Lett, 2005)
